Experimental data taken from PubChem BioAssay (NCI).
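Protocol summary: plate cells (96-well), add compound at 5 concentrations, incubate 48 h, interpolate endpoints linearly. At the TGI there is no net growth.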

Experiments:
Assay in all cases: inhibition of tumour cell growth, NCI panel, 48 h
786-0 renal = tested on: 786-0 renal
A498 renal = tested on: A498 renal
A549 NSCLC = tested on: A549 NSCLC
ACHN renal = tested on: ACHN renal
CAKI-1 renal = tested on: CAKI-1 renal
CCRF-CEM leukemia = tested on: CCRF-CEM leukemia
COLO 205 colon = tested on: COLO 205 colon
DLD-1 colon = tested on: DLD-1 colon
DMS 114 small cell lung = tested on: DMS 114 small cell lung
EKVX NSCLC = tested on: EKVX NSCLC
HCC-2998 colon = tested on: HCC-2998 colon
HCT-116 colon = tested on: HCT-116 colon
HCT-15 colon = tested on: HCT-15 colon
HL-60(TB) leukemia = tested on: HL-60(TB) leukemia
HOP-62 NSCLC = tested on: HOP-62 NSCLC
HT29 colon = tested on: HT29 colon
IGROV1 ovarian = tested on: IGROV1 ovarian
K-562 leukemia = tested on: K-562 leukemia
KM12 colon = tested on: KM12 colon
KM20L2 colon = tested on: KM20L2 colon
LOX IMVI melanoma = tested on: LOX IMVI melanoma
LXFL 529 NSCLC = tested on: LXFL 529 NSCLC
M14 melanoma = tested on: M14 melanoma
M19-MEL melanoma = tested on: M19-MEL melanoma
MALME-3M melanoma = tested on: MALME-3M melanoma
MOLT-4 leukemia = tested on: MOLT-4 leukemia
NCI-H226 lung = tested on: NCI-H226 lung
NCI-H23 lung = tested on: NCI-H23 lung
NCI-H460 lung = tested on: NCI-H460 lung
NCI-H522 lung = tested on: NCI-H522 lung
OVCAR-3 ovarian = tested on: OVCAR-3 ovarian
OVCAR-4 ovarian = tested on: OVCAR-4 ovarian
OVCAR-5 ovarian = tested on: OVCAR-5 ovarian
OVCAR-8 ovarian = tested on: OVCAR-8 ovarian
RPMI-8226 leukemia = tested on: RPMI-8226 leukemia
SF-268 CNS = tested on: SF-268 CNS
SF-295 CNS = tested on: SF-295 CNS
SF-539 CNS = tested on: SF-539 CNS
SK-MEL-2 melanoma = tested on: SK-MEL-2 melanoma
SK-MEL-5 melanoma = tested on: SK-MEL-5 melanoma
SK-OV-3 ovarian = tested on: SK-OV-3 ovarian
SN12C renal = tested on: SN12C renal
SNB-19 CNS = tested on: SNB-19 CNS
SNB-78 CNS = tested on: SNB-78 CNS
SR leukemia = tested on: SR leukemia
SW-620 colon = tested on: SW-620 colon
U251 CNS = tested on: U251 CNS
UACC-257 melanoma = tested on: UACC-257 melanoma
UACC-62 melanoma = tested on: UACC-62 melanoma
UO-31 renal = tested on: UO-31 renal
BT-549 breast = tested on: BT-549 breast
DU-145 prostate = tested on: DU-145 prostate
HOP-92 NSCLC = tested on: HOP-92 NSCLC
HS 578T breast = tested on: HS 578T breast
MCF7 breast = tested on: MCF7 breast
MDA-MB-231 breast = tested on: MDA-MB-231 breast
MDA-MB-435 = tested on: MDA-MB-435
MDA-N = tested on: MDA-N
NCI/ADR-RES ovarian = tested on: NCI/ADR-RES ovarian
PC-3 prostate = tested on: PC-3 prostate
RXF 393 renal = tested on: RXF 393 renal
SK-MEL-28 melanoma = tested on: SK-MEL-28 melanoma
SNB-75 CNS = tested on: SNB-75 CNS
T-47D breast = tested on: T-47D breast
TK-10 renal = tested on: TK-10 renal

CCCCC#COS(=O)(=O)c1ccc(C)cc1
TGI (786-0 renal): > 100 µM
TGI (A498 renal): > 100 µM
TGI (A549 NSCLC): > 100 µM
TGI (ACHN renal): > 100 µM
TGI (CAKI-1 renal): > 100 µM
TGI (CCRF-CEM leukemia): > 100 µM
TGI (COLO 205 colon): > 100 µM
TGI (DLD-1 colon): > 100 µM
TGI (DMS 114 small cell lung): > 100 µM
TGI (EKVX NSCLC): > 100 µM
TGI (HCC-2998 colon): > 100 µM
TGI (HCT-116 colon): > 100 µM
TGI (HCT-15 colon): > 100 µM
TGI (HL-60(TB) leukemia): > 100 µM
TGI (HOP-62 NSCLC): > 100 µM
TGI (HT29 colon): > 100 µM
TGI (IGROV1 ovarian): > 100 µM
TGI (K-562 leukemia): > 100 µM
TGI (KM12 colon): > 100 µM
TGI (KM20L2 colon): > 100 µM
TGI (LOX IMVI melanoma): > 100 µM
TGI (LXFL 529 NSCLC): > 100 µM
TGI (M14 melanoma): > 100 µM
TGI (M19-MEL melanoma): > 100 µM
TGI (MALME-3M melanoma): > 100 µM
TGI (MOLT-4 leukemia): > 100 µM
TGI (NCI-H226 lung): 84.9 µM
TGI (NCI-H23 lung): > 100 µM
TGI (NCI-H460 lung): > 100 µM
TGI (NCI-H522 lung): > 100 µM
TGI (OVCAR-3 ovarian): > 100 µM
TGI (OVCAR-4 ovarian): > 100 µM
TGI (OVCAR-5 ovarian): > 100 µM
TGI (OVCAR-8 ovarian): > 100 µM
TGI (RPMI-8226 leukemia): > 100 µM
TGI (SF-268 CNS): > 100 µM
TGI (SF-295 CNS): > 100 µM
TGI (SF-539 CNS): > 100 µM
TGI (SK-MEL-2 melanoma): > 100 µM
TGI (SK-MEL-5 melanoma): > 100 µM
TGI (SK-OV-3 ovarian): > 100 µM
TGI (SN12C renal): > 100 µM
TGI (SNB-19 CNS): > 100 µM
TGI (SNB-78 CNS): > 100 µM
TGI (SR leukemia): > 100 µM
TGI (SW-620 colon): > 100 µM
TGI (U251 CNS): > 100 µM
TGI (UACC-257 melanoma): > 100 µM
TGI (UACC-62 melanoma): > 100 µM
TGI (UO-31 renal): > 100 µM

CC(C)C(Br)CC/C(CBr)=C(\Cl)CCl (centres undefined)
TGI (786-0 renal): 3.49 µM
TGI (A498 renal): 35 µM
TGI (A549 NSCLC): 33.3 µM
TGI (ACHN renal): 28.2 µM
TGI (BT-549 breast): 3.27 µM
TGI (CAKI-1 renal): 9.89 µM
TGI (CCRF-CEM leukemia): 0.995 µM
TGI (COLO 205 colon): 8.53 µM
TGI (DU-145 prostate): 25.2 µM
TGI (EKVX NSCLC): 31.9 µM
TGI (HCC-2998 colon): 26.3 µM
TGI (HCT-116 colon): 5.11 µM
TGI (HCT-15 colon): 4.82 µM
TGI (HL-60(TB) leukemia): 3.86 µM
TGI (HOP-62 NSCLC): 30.3 µM
TGI (HOP-92 NSCLC): 6.84 µM
TGI (HS 578T breast): 15.4 µM
TGI (HT29 colon): 4.09 µM
TGI (IGROV1 ovarian): 3.64 µM
TGI (K-562 leukemia): 3.03 µM
TGI (KM12 colon): 17.9 µM
TGI (LOX IMVI melanoma): 1.08 µM
TGI (M14 melanoma): 3.82 µM
TGI (MALME-3M melanoma): 15.2 µM
TGI (MCF7 breast): 19.3 µM
TGI (MDA-MB-231 breast): 7.71 µM
TGI (MDA-MB-435): 5.16 µM
TGI (MDA-N): 3.81 µM
TGI (MOLT-4 leukemia): 2.36 µM
TGI (NCI-H226 lung): 6.97 µM
TGI (NCI-H23 lung): 12.3 µM
TGI (NCI-H460 lung): 30.6 µM
TGI (NCI-H522 lung): 2.02 µM
TGI (NCI/ADR-RES ovarian): 16.2 µM
TGI (OVCAR-3 ovarian): 8.21 µM
TGI (OVCAR-4 ovarian): 6.48 µM
TGI (OVCAR-5 ovarian): 23.3 µM
TGI (OVCAR-8 ovarian): 9.82 µM
TGI (PC-3 prostate): 16.3 µM
TGI (RPMI-8226 leukemia): 4.49 µM
TGI (RXF 393 renal): 3.66 µM
TGI (SF-268 CNS): 27.9 µM
TGI (SF-295 CNS): 28.7 µM
TGI (SF-539 CNS): 11.4 µM
TGI (SK-MEL-2 melanoma): 4.35 µM
TGI (SK-MEL-28 melanoma): 10.1 µM
TGI (SK-MEL-5 melanoma): 3.8 µM
TGI (SK-OV-3 ovarian): 11.3 µM
TGI (SN12C renal): 8.5 µM
TGI (SNB-19 CNS): 31.1 µM
TGI (SNB-75 CNS): 13.4 µM
TGI (SR leukemia): 3.71 µM
TGI (SW-620 colon): 3.94 µM
TGI (T-47D breast): 3.43 µM
TGI (TK-10 renal): 20.1 µM
TGI (U251 CNS): 17.5 µM
TGI (UACC-257 melanoma): 9.52 µM
TGI (UACC-62 melanoma): 7.71 µM
TGI (UO-31 renal): 15.8 µM
